Experimental findings from patent US9233978B2, “6-fused heteroaryldihydropyrimidines for the treatment and prophylaxis of hepatitis B virus infection” (Hoffmann-La Roche Inc., priority 2014, dated 2016) are described below.

Values after ≈ are worked out from the molar mass of the structure shown.

The nature of data set [1]: Human microsomal metabolic stability. It counts as in vitro ADME. The following applies: human microsomes 0.5 mg/mL, 1 μM test compound, NADPH, 37° C., pH 7.4, 0-30 minutes. How it is done:
Human Microsomes (BD Gentest) were preincubated with test compound for 10 minutes at 37° C. in 100 mM phosphate buffer, pH 7.4. The reactions were initiated by adding NADPH or NADPH regenerating system to give a final incubation volume of 400 μL. For NADPH system, the final incubations contained 1 μM test compound, 0.5 mg/mL liver microsomal protein, 1 mM NADPH in 100 mM phosphate buffer, pH 7.4. For the NADPH regenerating system, the final incubations contained 1 μM test compound, 0.5 mg/mL liver microsomal protein, 3 mM glucose 6-phosphate, 1 mM NADP, 3 mM MgCl2 and 0.05 mg/mL glucose 6-phosphate dehydrogenase in 100 mM phosphate buffer, pH 7.4. After incubation times of 0, 3, 6, 9, 15 and 30 minutes at 37° C., 1 sample was obtained from each time point and 50 μL of each sample was removed and transferred to 150 μL of methanol solution which was maintained at 4° C. and contained 2 μM tolbutamide as internal standard. Following precipitation and centrifugation, the amount of compound remaining in the samples were determined by LC-MS/MS. Controls of no NADPH or no NADPH regenerating system at zero and 30 minutes were also prepared and analyzed.

Another data set concerns HBV. Briefly: Anti-HBV activity in vitro, HepG2.2.15 cells, extracellular HBV DNA by qPCR. The format is cell-based. The following applies: Hepatitis B virus, HepG2.2.15, 120 h, HepG2.2.15 cells; HBV replication inhibited by 50%, extracellular HBV DNA by qPCR; five days after compound treatment; read-out: EC50. The text has this: HepG2.2.15 and HepDE19 are stably-transfected cell lines containing the HBV genome. Both cell lines are derived from the hepatoblastoma cell line Hep G2 (American Type Culture Collection, ATCC® HB-8065™) by the published procedures described in references: MA Selles et al. Proc. Natl. Acad. Sci. USA 1987, 84, 1005-1009 and H Guo et al. Journal of Virology 2007, 81, 12472-12484, respectively. Both cell lines were maintained in Dulbecco's modified Eagle's medium (DMEM)-F12 medium supplemented with 10% fetal bovine serum, 100 U/mL penicillin, 100 μg/mL streptomycin, and 0.5 mg/mL of G418.
While HepG2.2.15 cells constitutively support HBV replication and production of virus particles, HepDE19 cells are inducible by tetracycline. Addition of 1 μg/mL tetracycline in culture medium suppresses HBV replication in HepDE19 cells, whereas switching to tetracycline-free medium resumes this process.
HepG2.2.15 cells were seeded into 96-well plates (3×10^4 cells in 100 μL media per well) and incubated overnight at 37° C. The test compounds were serially half-log diluted in DMSO, then diluted 100 times in culture media. 100 μL of diluted compounds were added into the plates to reach 0.5% final concentration of DMSO in every well. Five days after compound treatment, culture supernatant was collected for further analysis.
For quantitative PCR detection of extracellular HBV DNA, 100 μL of culture supernatant was collected and processed in MagNA Pure 96 Nucleic Acid Purification System (Roche Applied Science) for viral DNA extraction. The extracted samples were subjected to HBV DNA quantification by qPCR.
In general terms: Quantitative PCR measures a nucleic acid by following its amplification.

The nature of a further data set: Lysa solubility. It counts as physicochemical. The following applies: 0.05 M phosphate buffer (pH 6.5); for solubility thermodynamic: phosphate buffer, pH 6.5, aqueous buffer, thermodynamic from solid. As to the method:
Samples were prepared in duplicate from 10 mM DMSO stock solutions. After evaporation of DMSO with a centrifugal vacuum evaporator, the residue was solved in 0.05 M phosphate buffer (pH 6.5), stirred for one hour and shook for two hours. After one night, the solution was filtered using a microtiter filter plate. Then the filtrate and its 1/10 dilution were analyzed by direct UV measurement or by HPLC-UV. […] The results were in μg/mL. In case the percentage of sample measured in solution after evaporation divided by the calculated maximum of sample amount was over 80%, the solubility was reported as higher than this value.

In the case of `CCOC(=O)C1=C(CN2CCN3C(=O)N(C4CC4)C[C@H]3[C@@H]2C(=O)O)NC(c2nccs2)=N[C@H]1c1cccc(F)c1Cl` (single isomer, unassigned) [Example 82A], the “Human Microsomal Clearance” value in data set [1] is 1.7 mL/min/kg. Further, the EC50 with HBV was 145 nM.
`COC(=O)C1=C(CN2CCN3C(=O)N(C(C)C)C[C@H]3[C@@H]2C(=O)O)NC(c2nccs2)=N[C@H]1c1ccc(F)c(F)c1C` (single isomer, unassigned) [Example 85A]: the “Lysa” value in the data set “Lysa solubility” is more than 660 µg/mL. For the same molecule, the “Human Microsomal Clearance” value in data set [1] was determined as 4.9 mL/min/kg. Also, the EC50 with HBV is 259 nM.
Take `COC(=O)C1=C(CN2CCN3C(=O)OC(C)(C)[C@]3(CC(=O)O)C2)NC(c2nccs2)=N[C@H]1c1ccc(F)cc1Cl` (single isomer, unassigned) [Example 90A]: the “Human Microsomal Clearance” value in data set [1] stood at 0.3 mL/min/kg. Moreover, the EC50 with HBV was found to be 96 nM.
In the case of `CCOC(=O)C1=C(CN2CCN3C(=O)N(C4(CC(=O)O)CC4)CC3C2)NC(c2nccs2)=N[C@H]1c1cccc(F)c1Cl` (stereo in doubt) [Example 48, 2-[1-[(8aR)-7-[[(4R)-4-(2-chloro-3-fluoro-phenyl)-5-ethoxycarbonyl-2-thiazol-2-yl-1,4-dihydropyrimidin-6-yl]methyl]-3-oxo-5,6,8,8a-tetrahydro-1H-imidazo[1,5-a]pyrazin-2-yl]cyclopropyl]acetic acid], in the data set “Lysa solubility”, the solubility (thermodynamic) was more than 807 µg/mL. Moreover, the “Human Microsomal Clearance” value in data set [1] turned out to be 3.8 mL/min/kg. Also, the half-maximal effective concentration (EC50) in the data set with HBV was 22 nM.
For `CCOC(=O)C1=C(CN2CCN3C(=O)N([C@@H]4CCCC4C(=O)O)C[C@@H]3C2)NC(c2nccs2)=N[C@H]1c1cccc(F)c1Cl` (stereo in doubt) [Example 50, (1R,2R)-2-[(8aS)-7-[[(4R)-4-(2-chloro-3-fluoro-phenyl)-5-ethoxycarbonyl-2-thiazol-2-yl-1,4-dihydropyrimidin-6-yl]methyl]-3-oxo-5,6,8,8a-tetrahydro-1H-imidazo[1,5-a]pyrazin-2-yl]cyclopentanecarboxylic acid], in that order: 339 µg/mL (≈ 537 µM), 3.6 mL/min/kg and 15 nM.
`CCOC(=O)C1=C(CN2CCN3C(=O)N(CC(C)C(=O)O)C[C@@H]3C2)NC(c2nccs2)=N[C@H]1c1ccccc1Cl` (stereo partly drawn) [Example 20, 3-[(8aS)-7-[[(4R)-4-(2-chlorophenyl)-5-ethoxycarbonyl-2-thiazol-2-yl-1,4-dihydropyrimidin-6-yl]methyl]-3-oxo-5,6,8,8a-tetrahydro-1H-imidazo[1,5-a]pyrazin-2-yl]-2-methyl-propanoic acid]: the thermodynamic solubility in the data set “Lysa solubility” is more than 780 µg/mL. For the same molecule, the “Human Microsomal Clearance” value in data set [1] is 0.1 mL/min/kg. In addition, the EC50 with HBV was 52 nM.
The like results for `CCOC(=O)C1=C(CN2CCN3C(=O)N(c4ccccc4C(=O)O)C[C@@H]3C2)NC(c2nccs2)=N[C@H]1c1cccc(F)c1Cl` [Example 28, (R)-6-[(S)-2-(2-Carboxy-phenyl)-3-oxo-hexahydro-imidazo[1,5-a]pyrazin-7-ylmethyl]-4-(2-chloro-3-fluoro-phenyl)-2-thiazol-2-yl-1,4-dihydro-pyrimidine-5-carboxylic acid ethyl ester] were, in that order, 337 µg/mL (≈ 527 µM), 4.4 mL/min/kg and 30 nM.
For `COC(=O)C1=C(CN2CCN3C(=O)N(c4cccc(C(=O)O)c4)C[C@@H]3C2)NC(c2nccs2)=N[C@H]1c1ccc(F)cc1Cl` [Example 29, (R)-6-[(S)-2-(3-Carboxy-phenyl)-3-oxo-hexahydro-imidazo[1,5-a]pyrazin-7-ylmethyl]-4-(2-chloro-4-fluoro-phenyl)-2-thiazol-2-yl-1,4-dihydro-pyrimidine-5-carboxylic acid methyl ester], the “Human Microsomal Clearance” value in data set [1] was determined as 0.3 mL/min/kg. Also, the EC50 with HBV was determined as 7 nM.
The molecule `COC(=O)C1=C(CN2CCN3C(=O)N(C(C)C)CC3(CC(=O)O)C2)NC(c2nccs2)=N[C@H]1c1ccc(F)cc1Cl` (stereo partly drawn) [Example 31, 2-[7-[[(4R)-4-(2-chloro-4-fluoro-phenyl)-5-methoxycarbonyl-2-thiazol-2-yl-1,4-dihydropyrimidin-6-yl]methyl]-2-isopropyl-3-oxo-1,5,6,8-tetrahydroimidazo[1,5-a]pyrazin-8a-yl]acetic acid] came in with a thermodynamic solubility in the data set “Lysa solubility” of more than 775 µg/mL. Also, the “Human Microsomal Clearance” value in data set [1] worked out at 0.3 mL/min/kg. Besides, in the data set with HBV, the EC50 is 100 nM.
In “Lysa solubility”, `CCOC(=O)C1=C(CN2CCN3C(=O)N(C(C)(C)C(=O)O)C[C@@H]3C2)NC(c2nccs2)=N[C@H]1c1cccc(F)c1Cl` [Example 32, (R)-6-[(S)-2-(1-Carboxy-1-methyl-ethyl)-3-oxo-hexahydro-imidazo[1,5-a]pyrazin-7-ylmethyl]-4-(2-chloro-3-fluoro-phenyl)-2-thiazol-2-yl-1,4-dihydro-pyrimidine-5-carboxylic acid ethyl ester] registered a thermodynamic solubility of more than 701 µg/mL. In addition, in data set [1], the “Human Microsomal Clearance” value worked out at 1.6 mL/min/kg. Further, the EC50 in the data set on HBV came out at 199 nM.
For `COC(=O)C1=C(CN2CCN3C(=O)N(C(C)(C)CC(=O)O)C[C@@H]3C2)NC(c2nccs2)=N[C@H]1c1ccc(F)cc1Cl` [Example 33, 3-[(8aS)-7-[[(4R)-4-(2-chloro-4-fluoro-phenyl)-5-methoxycarbonyl-2-thiazol-2-yl-1,4-dihydropyrimidin-6-yl]methyl]-3-oxo-5,6,8,8a-tetrahydro-1H-imidazo[1,5-a]pyrazin-2-yl]-3-methyl-butanoic acid], in that order: more than 748 µg/mL, 2.5 mL/min/kg and 30 nM.
`COC(=O)C1=C(CN2CCN3C(=O)N(C(C)(C)CC(=O)O)C[C@@H]3C2)NC(c2nccs2)=N[C@H]1c1ccc(F)c(F)c1C` [Example 37, 3-[(8aS)-7-[[(4S)-4-(3,4-difluoro-2-methyl-phenyl)-5-methoxycarbonyl-2-thiazol-2-yl-1,4-dihydropyrimidin-6-yl]methyl]-3-oxo-5,6,8,8a-tetrahydro-1H-imidazo[1,5-a]pyrazin-2-yl]-3-methyl-butanoic acid]: the solubility (thermodynamic) in “Lysa solubility” worked out at 422 µg/mL (≈ 700 µM). In data set [1], the “Human Microsomal Clearance” value is on record as 2.5 mL/min/kg. For the same molecule, in the data set on HBV, the EC50 is 17 nM.
With `CCOC(=O)C1=C(CN2CCN3C(=O)N(CCC(=O)O)C[C@@H]3C2)NC(c2nccs2)=N[C@H]1c1cccc(F)c1Cl` [Example 56, (R)-6-[(S)-2-(2-Carboxy-ethyl)-3-oxo-hexahydro-imidazo[1,5-a]pyrazin-7-ylmethyl]-4-(2-chloro-3-fluoro-phenyl)-2-thiazol-2-yl-1,4-dihydro-pyrimidine-5-carboxylic acid ethyl ester], the solubility (thermodynamic) in “Lysa solubility” is more than 740 µg/mL. In addition, the EC50 with HBV stood at 26 nM.
On to `CCC(CN1C[C@@H]2CN(CC3=C(C(=O)OC)[C@H](c4ccc(F)cc4Cl)N=C(c4nccs4)N3)CCN2C1=O)C(=O)O` (stereo partly drawn) [Example 75, 2-[[(8aS)-7-[[(4R)-4-(2-chloro-4-fluoro-phenyl)-5-methoxycarbonyl-2-thiazol-2-yl-1,4-dihydropyrimidin-6-yl]methyl]-3-oxo-5,6,8,8a-tetrahydro-1H-imidazo[1,5-a]pyrazin-2-yl]methyl]butanoic acid], for which the solubility (thermodynamic) in “Lysa solubility” was more than 774 µg/mL. Moreover, the EC50 with HBV is 24 nM.

Usually EC50 stands for the concentration needed to bring the measured effect to its halfway point. In general, solubility (thermodynamic) refers to the concentration in solution at equilibrium with solid.
